# Patent EP3331365B1, “AGENT FOR FIGHTING FISH PARASITES” (Pharmaq AS, priority 2015, dated 2017)
# Tests used:
# Format in all cases: in vivo
# [1] = system: tilapia (Oreochromis niloticus); test: Toxicity to fish, intraperitoneal injection
# Description: . Tilapia of mean weight of 158 grams reared in freshwater at 29°C were distributed in three groups of 10 fish. Each group was injected with 0.05 ml of the relevant formulation, or PBS control.
# Lepeophtheirus salmonis = test: Lesa assay: bioassay on salmon lice, 1 hour exposure in seawater; details: monitored until 96 hours post exposure, 8-10 °C
# Description: The stock was then diluted in saltwater to the appropriate concentration.
# Control formulations were also prepared comprising only solvent (acetone) and solubilizer (Kolliphor EL) in the same ratio as the test formulation. A salt water control was also used.
# Bioassay experiments were then conducted on copepodites and pre-adult/adult salmon lice (Lepeophtheirus salmonis).
# After 1 hour exposure, the lice were transferred to modified 6 well plates and washed twice in saltwater. The plates were then incubated and the numbers of dead and surviving lice were monitored until 96 hours post exposure. The experimental temperature was maintained at 8-10 °C.
# sea lice (L. salmonis) = test: Bath treatment of sea lice infested Atlantic salmon: count of attached female sea lice; details: 2ppm for 60 minutes by bath; 12°C seawater; counted three days after treatment
# Description: Diafenthiuron was tested for use in treating fish parasites.
# Atlantic salmon were acclimatized to 12°C seawater.
# Three days after treatment the number of attached female sea lice was counted. The number of adult female sea lice was reduced by 56% in the treated group.
smiles,measurement,setting,value
"CC(C)c1cc(Oc2ccccc2)cc(C(C)C)c1NC(=S)NC(C)(C)C [Diafenthiuron, 1-tert-butyl-3-(2,6-diisopropyl-4-phenoxyphenyl)thiourea]",% mortality,"[1]; 0.05 ml of 25 mg/ml in PEG400 (85%)/DMSO (15%), intraperitoneal injection, 5 days, same mortality in group without diafenthiuron",10%
same,No. of fish healthy after 5 days,"[1]; 0.05 ml of 25 mg/ml in PEG400 (85%)/DMSO (15%), intraperitoneal injection, freshwater 29°C, 10 fish",9/10
same,treated fish alive and healthy,"[1]; five days after treatment, 25 mg/ml in PEG400/DMSO, 0.05 ml intraperitoneal injection",90%
same,% dead,"Lepeophtheirus salmonis; Copepodites, 0.5 ppm",77%
same,Dead/total,"Lepeophtheirus salmonis; Copepodites, 0.5 ppm",10/13
same,% dead,"Lepeophtheirus salmonis; Copepodites, 2.0 ppm",100%
same,Dead/total,"Lepeophtheirus salmonis; Copepodites, 2.0 ppm",20/20
same,% dead,"Lepeophtheirus salmonis; Copepodites, 20 ppb",48%
same,Dead/total,"Lepeophtheirus salmonis; Copepodites, 20 ppb",11/23
same,% dead,"Lepeophtheirus salmonis; Pre-adult/adult, 2.0 ppm",100%
same,Dead/total,"Lepeophtheirus salmonis; Pre-adult/adult, 2.0 ppm",5/5
same,reduction of the number of adult female sea lice,sea lice (L. salmonis),56%
